Experiments:
Test in all cases: biochemical
BMX = BMX (Homo sapiens, UniProt P51813); parameters: Thermo Fisher SelectScreen kinase panel: Z'-LYTE and Adapta activity, LanthaScreen binding
Description: (§1) 5 88 GNE684 was tested in Thermo Fisher Scientific SelectScreen assay (Madison, WI) 89 against 221 representative kinases at a concentration of 10 µM, which is 476-fold greater than the Ki app 90 for GNE684 against human RIP1 in the RIP1 enzyme 91 assay. The kinase assays were carried out using Z'-LYTE and Adapta activity and 92 LanthaScreen binding assays (Thermo Fisher Scientific, Madison WI) following 93 protocols developed and performed by Thermo Fisher Scientific 94 (https://www.thermofisher.com/us/en/home/products-and-services/services/custom-95 services/screening-and-profiling-services/selectscreen-profiling-service/selectscreen-96 kinase-profiling-service.html). 97 GNE684 was also tested against 468 kinases in the KINOMEscan scanMAX kinase 98 binding assay panel at a concentration of 10 µM following protocols developed and 99 performed by DiscoverX (http://www.discoverx.com/kinase_profiling).

PLK3 = PLK3 (Homo sapiens, UniProt Q9H4B4); parameters: Thermo Fisher SelectScreen kinase panel: Z'-LYTE and Adapta activity, LanthaScreen binding
Description: as §1

CSK = CSK (Homo sapiens, UniProt P41240); parameters: Thermo Fisher SelectScreen kinase panel: Z'-LYTE and Adapta activity, LanthaScreen binding
Description: as §1

INSR = INSR (Homo sapiens, UniProt P06213); parameters: Thermo Fisher SelectScreen kinase panel: Z'-LYTE and Adapta activity, LanthaScreen binding
Description: as §1

SPHK1 = SPHK1 (Homo sapiens, UniProt Q9NYA1); parameters: Thermo Fisher SelectScreen kinase panel: Z'-LYTE and Adapta activity, LanthaScreen binding
Description: as §1

KHS1 = target: T1, KHS1 (Homo sapiens, UniProt Q9Y4K4); parameters: Thermo Fisher SelectScreen kinase panel: Z'-LYTE and Adapta activity, LanthaScreen binding
T1 construct: gene MAP4K5
Description: as §1

HIPK4 = HIPK4 (Homo sapiens, UniProt Q8NE63); parameters: Thermo Fisher SelectScreen kinase panel: Z'-LYTE and Adapta activity, LanthaScreen binding
Description: as §1

ACVR1B = ACVR1B (Homo sapiens, UniProt P36896); parameters: Thermo Fisher SelectScreen kinase panel: Z'-LYTE and Adapta activity, LanthaScreen binding
Chain of ACVR1B (P36896 whole entry): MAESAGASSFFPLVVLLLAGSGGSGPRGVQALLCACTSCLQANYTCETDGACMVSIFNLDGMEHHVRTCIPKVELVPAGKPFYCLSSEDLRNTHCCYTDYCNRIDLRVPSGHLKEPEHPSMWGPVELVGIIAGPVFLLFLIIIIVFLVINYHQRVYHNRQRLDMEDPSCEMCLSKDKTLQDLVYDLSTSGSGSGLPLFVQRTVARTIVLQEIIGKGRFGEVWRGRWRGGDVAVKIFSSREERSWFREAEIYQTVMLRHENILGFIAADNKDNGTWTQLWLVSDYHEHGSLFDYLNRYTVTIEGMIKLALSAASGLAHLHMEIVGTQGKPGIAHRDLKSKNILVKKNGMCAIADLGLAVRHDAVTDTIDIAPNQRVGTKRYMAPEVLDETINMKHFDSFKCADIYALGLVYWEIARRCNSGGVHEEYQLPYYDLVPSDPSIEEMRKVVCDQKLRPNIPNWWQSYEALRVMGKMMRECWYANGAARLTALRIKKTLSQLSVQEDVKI
Description: as §1

CDK8/cyclinC = CDK8/cyclinC (Homo sapiens, UniProt P49336); parameters: Thermo Fisher SelectScreen kinase panel: Z'-LYTE and Adapta activity, LanthaScreen binding
Chain of CDK8/cyclinC (P49336 whole entry): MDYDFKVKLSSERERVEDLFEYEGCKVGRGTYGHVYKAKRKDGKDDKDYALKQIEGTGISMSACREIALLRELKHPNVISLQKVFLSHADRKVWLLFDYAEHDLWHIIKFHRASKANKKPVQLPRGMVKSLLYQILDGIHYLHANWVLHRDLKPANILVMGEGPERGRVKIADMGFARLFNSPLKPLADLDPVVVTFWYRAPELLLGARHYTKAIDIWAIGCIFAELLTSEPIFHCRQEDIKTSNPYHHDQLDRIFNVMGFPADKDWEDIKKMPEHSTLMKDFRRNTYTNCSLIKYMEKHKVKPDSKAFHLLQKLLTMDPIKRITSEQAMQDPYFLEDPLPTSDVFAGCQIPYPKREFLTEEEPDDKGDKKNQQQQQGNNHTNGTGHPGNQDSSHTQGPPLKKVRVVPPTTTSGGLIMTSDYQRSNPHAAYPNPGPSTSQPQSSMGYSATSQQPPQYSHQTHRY
Chain of CDK8/cyclinC (P24863 whole entry partner): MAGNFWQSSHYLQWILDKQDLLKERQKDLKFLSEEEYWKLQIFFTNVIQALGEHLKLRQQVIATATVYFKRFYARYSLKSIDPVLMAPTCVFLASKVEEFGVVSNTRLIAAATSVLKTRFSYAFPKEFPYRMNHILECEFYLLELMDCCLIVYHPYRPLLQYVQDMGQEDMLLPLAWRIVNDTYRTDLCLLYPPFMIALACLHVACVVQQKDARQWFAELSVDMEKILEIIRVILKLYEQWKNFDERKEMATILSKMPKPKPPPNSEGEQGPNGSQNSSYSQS
Description: as §1

MELK = MELK (Homo sapiens, UniProt Q14680); parameters: Thermo Fisher SelectScreen kinase panel: Z'-LYTE and Adapta activity, LanthaScreen binding
Description: as §1

LRRK2 = LRRK2 (Homo sapiens, UniProt Q5S007); parameters: Thermo Fisher SelectScreen kinase panel: Z'-LYTE and Adapta activity, LanthaScreen binding
Chain of LRRK2 (Q5S007 whole entry): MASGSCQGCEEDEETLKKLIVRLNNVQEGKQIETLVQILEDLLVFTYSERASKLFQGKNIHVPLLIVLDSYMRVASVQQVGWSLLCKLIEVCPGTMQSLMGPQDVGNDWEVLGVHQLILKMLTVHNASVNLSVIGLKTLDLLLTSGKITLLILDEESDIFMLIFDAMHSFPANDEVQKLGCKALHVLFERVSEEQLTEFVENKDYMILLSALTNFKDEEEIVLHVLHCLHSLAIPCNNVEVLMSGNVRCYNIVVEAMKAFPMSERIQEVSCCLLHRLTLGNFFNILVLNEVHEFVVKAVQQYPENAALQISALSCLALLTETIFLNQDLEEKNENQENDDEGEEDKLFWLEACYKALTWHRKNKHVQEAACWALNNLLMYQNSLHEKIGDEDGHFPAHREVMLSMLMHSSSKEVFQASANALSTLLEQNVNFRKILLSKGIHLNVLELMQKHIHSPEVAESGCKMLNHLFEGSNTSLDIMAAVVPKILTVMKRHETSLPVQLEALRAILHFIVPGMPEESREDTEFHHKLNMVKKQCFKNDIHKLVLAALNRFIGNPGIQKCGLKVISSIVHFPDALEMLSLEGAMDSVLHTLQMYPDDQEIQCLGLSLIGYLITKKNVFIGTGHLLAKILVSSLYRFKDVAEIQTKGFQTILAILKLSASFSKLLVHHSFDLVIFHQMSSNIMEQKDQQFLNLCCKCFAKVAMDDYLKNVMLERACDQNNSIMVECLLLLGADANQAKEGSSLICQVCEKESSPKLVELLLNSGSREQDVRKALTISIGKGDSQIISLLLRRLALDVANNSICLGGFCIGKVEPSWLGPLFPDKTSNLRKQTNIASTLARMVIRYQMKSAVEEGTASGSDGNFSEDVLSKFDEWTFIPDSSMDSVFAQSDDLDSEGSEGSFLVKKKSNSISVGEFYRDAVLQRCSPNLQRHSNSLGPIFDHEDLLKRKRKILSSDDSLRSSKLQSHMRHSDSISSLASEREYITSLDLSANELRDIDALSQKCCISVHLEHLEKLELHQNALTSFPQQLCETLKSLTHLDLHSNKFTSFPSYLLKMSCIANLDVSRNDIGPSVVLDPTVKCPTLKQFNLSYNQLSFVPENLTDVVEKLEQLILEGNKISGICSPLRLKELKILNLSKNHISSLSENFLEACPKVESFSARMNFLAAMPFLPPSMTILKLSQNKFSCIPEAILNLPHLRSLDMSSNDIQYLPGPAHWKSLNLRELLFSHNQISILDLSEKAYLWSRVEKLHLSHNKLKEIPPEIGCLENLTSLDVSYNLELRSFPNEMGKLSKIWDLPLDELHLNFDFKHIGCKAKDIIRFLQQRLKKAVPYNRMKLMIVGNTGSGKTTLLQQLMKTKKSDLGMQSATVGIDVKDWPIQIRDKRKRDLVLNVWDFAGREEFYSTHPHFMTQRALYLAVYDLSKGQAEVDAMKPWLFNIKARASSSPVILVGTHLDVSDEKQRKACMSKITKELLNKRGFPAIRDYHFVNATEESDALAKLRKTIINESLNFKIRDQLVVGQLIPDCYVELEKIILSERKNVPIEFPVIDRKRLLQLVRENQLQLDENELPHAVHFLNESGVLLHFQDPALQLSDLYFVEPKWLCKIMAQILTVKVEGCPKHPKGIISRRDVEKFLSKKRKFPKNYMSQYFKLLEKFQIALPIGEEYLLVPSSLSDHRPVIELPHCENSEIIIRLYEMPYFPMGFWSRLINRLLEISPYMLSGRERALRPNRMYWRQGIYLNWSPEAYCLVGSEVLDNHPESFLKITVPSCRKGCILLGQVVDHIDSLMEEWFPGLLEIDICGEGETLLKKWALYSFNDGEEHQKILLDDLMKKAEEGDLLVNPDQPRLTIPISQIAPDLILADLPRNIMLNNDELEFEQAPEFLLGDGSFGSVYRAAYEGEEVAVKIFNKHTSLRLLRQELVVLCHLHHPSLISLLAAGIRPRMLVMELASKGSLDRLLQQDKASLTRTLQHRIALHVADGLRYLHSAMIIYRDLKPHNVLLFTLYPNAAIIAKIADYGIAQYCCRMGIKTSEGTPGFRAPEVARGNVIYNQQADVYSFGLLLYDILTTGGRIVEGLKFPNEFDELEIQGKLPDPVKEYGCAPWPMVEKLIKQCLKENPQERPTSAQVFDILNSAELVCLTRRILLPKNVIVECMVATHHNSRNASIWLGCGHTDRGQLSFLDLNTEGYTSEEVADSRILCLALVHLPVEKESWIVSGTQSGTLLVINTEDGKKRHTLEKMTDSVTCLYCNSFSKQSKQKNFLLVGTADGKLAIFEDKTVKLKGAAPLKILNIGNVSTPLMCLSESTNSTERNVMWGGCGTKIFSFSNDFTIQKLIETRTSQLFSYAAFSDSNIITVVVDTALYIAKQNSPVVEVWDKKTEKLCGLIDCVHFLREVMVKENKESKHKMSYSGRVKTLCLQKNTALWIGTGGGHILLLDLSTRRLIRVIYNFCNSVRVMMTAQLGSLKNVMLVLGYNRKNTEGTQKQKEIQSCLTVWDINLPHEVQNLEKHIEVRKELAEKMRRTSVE
Description: as §1

LCK = LCK (Homo sapiens, UniProt P06239); parameters: Thermo Fisher SelectScreen kinase panel: Z'-LYTE and Adapta activity, LanthaScreen binding
Description: as §1

ERBB2 = ERBB2 (Homo sapiens, UniProt P04626); parameters: Thermo Fisher SelectScreen kinase panel: Z'-LYTE and Adapta activity, LanthaScreen binding
Description: as §1

RET = RET (Homo sapiens, UniProt P07949); parameters: Thermo Fisher SelectScreen kinase panel: Z'-LYTE and Adapta activity, LanthaScreen binding
Description: as §1

TRKA = target: T2, TRKA (Homo sapiens, UniProt P04629); parameters: Thermo Fisher SelectScreen kinase panel: Z'-LYTE and Adapta activity, LanthaScreen binding
T2 construct: gene NTRK1
Description: as §1

PKG1_alpha = target: T3, PKG1_alpha (Homo sapiens, UniProt Q13976); parameters: Thermo Fisher SelectScreen kinase panel: Z'-LYTE and Adapta activity, LanthaScreen binding
T3 construct: gene PRKG1; isoform alpha
T3 sequence (Q13976 whole entry, canonical isoform): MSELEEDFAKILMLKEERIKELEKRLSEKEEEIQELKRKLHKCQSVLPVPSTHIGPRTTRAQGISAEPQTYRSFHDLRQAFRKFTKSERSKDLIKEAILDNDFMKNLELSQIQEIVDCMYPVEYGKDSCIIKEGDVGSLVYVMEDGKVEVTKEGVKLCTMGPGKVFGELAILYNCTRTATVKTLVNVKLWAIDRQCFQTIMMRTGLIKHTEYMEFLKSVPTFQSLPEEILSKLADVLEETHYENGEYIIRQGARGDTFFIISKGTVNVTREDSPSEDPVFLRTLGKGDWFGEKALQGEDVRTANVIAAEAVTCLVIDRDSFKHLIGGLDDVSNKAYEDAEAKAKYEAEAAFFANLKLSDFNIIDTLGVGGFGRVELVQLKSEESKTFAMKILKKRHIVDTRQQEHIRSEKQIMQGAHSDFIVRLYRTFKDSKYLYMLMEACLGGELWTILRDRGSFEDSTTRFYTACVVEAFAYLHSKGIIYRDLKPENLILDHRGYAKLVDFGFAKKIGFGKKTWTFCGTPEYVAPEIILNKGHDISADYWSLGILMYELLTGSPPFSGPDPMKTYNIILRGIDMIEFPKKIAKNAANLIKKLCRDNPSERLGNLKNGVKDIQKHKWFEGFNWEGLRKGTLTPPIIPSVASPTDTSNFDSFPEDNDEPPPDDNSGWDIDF
Description: as §1

DYRK1B = DYRK1B (Homo sapiens, UniProt Q9Y463); parameters: DiscoverX kinase panel, active-site competition binding (KINOMEscan type), percent of control at one concentration; details: competition binding, percent of control
Chain of DYRK1B (Q9Y463 whole entry): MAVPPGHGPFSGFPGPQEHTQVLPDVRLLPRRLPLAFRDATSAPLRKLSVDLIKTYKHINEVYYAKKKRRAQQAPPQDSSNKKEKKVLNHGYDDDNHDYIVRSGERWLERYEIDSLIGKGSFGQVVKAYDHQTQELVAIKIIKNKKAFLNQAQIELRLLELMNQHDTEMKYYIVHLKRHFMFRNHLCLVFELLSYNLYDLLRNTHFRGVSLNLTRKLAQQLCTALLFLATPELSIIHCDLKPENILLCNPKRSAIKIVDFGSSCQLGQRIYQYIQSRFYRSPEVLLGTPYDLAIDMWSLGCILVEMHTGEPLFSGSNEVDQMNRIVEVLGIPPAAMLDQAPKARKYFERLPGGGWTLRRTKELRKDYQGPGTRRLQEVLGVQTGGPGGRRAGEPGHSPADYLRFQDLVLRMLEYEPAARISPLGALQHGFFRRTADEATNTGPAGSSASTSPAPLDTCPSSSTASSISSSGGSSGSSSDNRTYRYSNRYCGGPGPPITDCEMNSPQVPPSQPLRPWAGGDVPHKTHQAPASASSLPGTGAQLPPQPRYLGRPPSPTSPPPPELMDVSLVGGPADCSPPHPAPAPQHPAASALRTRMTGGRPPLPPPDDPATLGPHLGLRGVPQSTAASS
Text: (§2) To investigate the potential therapeutic benefit of inhibiting RIP1, we developed GNE684 or (S)-N-((S)-7-methoxy-1-methyl-2-oxo-2,3,4,5-tetrahydro-1H-pyrido[3,4-b]azepin-3-yl)-5-phenyl-6,7-dihydro-5H-pyrrolo[1,2-b][1,2,4]triazole-2-carboxamide with cross-species potency against RIP1, exquisite kinase selectivity, and favorable pharmacological properties (Fig. 1a–h, S1, Tables S1 and S2, SI file 1). […] (Fig. 1b, S1, and Table S1). […] GNE684 inhibited human RIP1 potently in vitro, and mouse and rat RIP1 with slightly less potency (Fig. 1d). Accordingly, it inhibited TNF-induced necroptosis in human HT-29, mouse L929, or rat H9c2 cells (Fig. 1e). The cellular potency of GNE684 was confirmed in a human whole blood assay using TBZ ([compound left out], IAP antagonist BV6, and pan-caspase inhibitor zVAD) or LZ (LPS plus zVAD) to trigger necroptosis and the release of IL-1α and IL-1β (Fig. 1f).

STK33 = STK33 (Homo sapiens, UniProt Q9BYT3); parameters: DiscoverX kinase panel, active-site competition binding (KINOMEscan type), percent of control at one concentration; details: competition binding, percent of control
Text: as §2

LTK = LTK (Homo sapiens, UniProt P29376); parameters: DiscoverX kinase panel, active-site competition binding (KINOMEscan type), percent of control at one concentration; details: competition binding, percent of control
Text: as §2

COc1cc2c(cn1)N(C)C(=O)[C@@H](NC(=O)c1nc3n(n1)[C@H](c1ccccc1)CC3)CC2 [GNE684, (S)-N-((S)-7-methoxy-1-methyl-2-oxo-2,3,4,5-tetrahydro-1H-pyrido[3,4-b]azepin-3-yl)-5-phenyl-6,7-dihydro-5H-pyrrolo[1,2-b][1,2,4]triazole-2-carboxamide] showed an inhibition at 10 µM (BMX) of 4.5%, an inhibition at 10 µM (PLK3) of 5% and an inhibition at 10 µM (CSK) of -1.5%. The inhibition at 10 µM (INSR) was 3.5%, the inhibition at 10 µM (SPHK1) was 4.5% and the inhibition at 10 µM (KHS1) was 12%. The inhibition at 10 µM (HIPK4) was 11.5%, the inhibition at 10 µM (ACVR1B) was -2% and the inhibition at 10 µM (CDK8/cyclinC) was 4.5%. For the same compound, the inhibition at 10 µM (MELK) was 13%, the inhibition at 10 µM (LRRK2) was -19.5% and the inhibition at 10 µM (LCK) was 5%. For the same compound, the inhibition at 10 µM (ERBB2) was -5.5%, the inhibition at 10 µM (RET) was 4% and the inhibition at 10 µM (TRKA) was -3%. It also gave an inhibition at 10 µM (PKG1_alpha) of 7%, a remaining binding at 10 µM (DYRK1B) of 54% and a remaining binding at 10 µM (STK33) of 86%. For the same compound, the remaining binding at 10 µM (LTK) was 93%.
